Drawing on patent US20220062278A1, “SMALL MOLECULE INHIBITORS OF THE ANDROGEN RECEPTOR ACTIVITY AND/OR EXPRESSION AND USES THEREOF” (Arizona Board of Regents on Behalf of the Univeristy of …, priority 2018, published 2022), this text covers inhibition and IC50 for 15 compounds.

This experiment has as its target T1, AR (Homo sapiens, UniProt P10275).
T1 sequence (P10275 669-920 limits assumed): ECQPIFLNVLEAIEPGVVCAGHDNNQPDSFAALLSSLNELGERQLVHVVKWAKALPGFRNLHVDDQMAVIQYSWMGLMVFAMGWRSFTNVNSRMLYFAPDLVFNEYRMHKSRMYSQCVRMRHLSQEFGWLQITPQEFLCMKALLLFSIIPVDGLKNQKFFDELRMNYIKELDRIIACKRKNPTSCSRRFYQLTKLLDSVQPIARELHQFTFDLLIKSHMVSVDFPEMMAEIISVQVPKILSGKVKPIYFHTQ
Nature of the experiment: GeneBlazer assay, inhibition against AR activity. The format is cell-based. Conditions: Table II. From the text: Tables II, III and IV show % inhibition against AR activity at 10 μm within a GeneBlazer assay, and IC50 values (nM) in GeneBlazer assay.

Each structure is given as a SMILES string.

By inhibition is commonly meant the drop in the measured response relative to a control, in per cent. Take `CCCCC(c1nnnn1C(C)C)N1CCN(c2c(Cl)cncc2Cl)CC1` (stereo not drawn) [Compound 52, 1-(3,5-dichloropyridin-4-yl)-4-(1-(1-isopropyl-1H-tetrazol-5-yl)pentyl)piperazine]: the inhibition at 10 µM turned out to be 95.8%.
Regarding `CCCCNC(=O)C(c1cccc(O)c1)N1CCN(c2c(Cl)cncc2Cl)CC1` (stereo not drawn) [Compound 21, N-butyl-2-(4-(3,5-dichloropyridin-4-yl)piperazin-1-yl)-2-(3-hydroxyphenyl)acetamide], the inhibition at 10 µM worked out at 93%.
With `CCCCn1nnnc1C(c1ccc2ccccc2c1)N1CCN(c2c(Cl)cncc2Cl)CC1` (stereo not drawn) [Compound 40, 1-((1-butyl-1H-tetrazol-5-yl)(naphthalen-2-yl)methyl)-4-(3,5-dichloropyridin-4-yl)piperazine], the inhibition at 10 µM stood at 87.6%.
As for `Clc1cncc(Cl)c1N1CCN(Cc2cc3ccccc3o2)CC1` [Compound 23, 1-(benzofuran-2-ylmethyl)-4-(3,5-dichloropyridin-4-yl)piperazine], the inhibition at 10 µM was found to be 101%.
For orientation: IC50 means the concentration needed to halve the response being measured. A high value points to weaker potency. As for `CCCCn1nnnc1C(c1cccc(O)c1)N1CCN(c2ncc(C(F)(F)F)cc2Cl)CC1` (stereo not drawn) [Compound 61, 3-((1-butyl-1H-tetrazol-5-yl)(4-(3-chloro-5-(trifluoromethyl)pyridin-2-yl)piperazin-1-yl)methyl)phenol], the inhibition at 10 µM is 102% and 2270 nM corresponded to half-maximal inhibition (IC50).
`Oc1cccc(C(c2nnnn2C2CCCCC2)N2CCN(c3c(Cl)cncc3Cl)CC2)c1` (stereo not drawn) [Compound 18, 3-((1-cyclohexyl-1H-tetrazol-5-yl)(4-(3,5-dichloropyridin-4-yl)piperazin-1-yl)methyl)phenol]: the inhibition at 10 µM turned out to be 110%.
`CCCCn1nnnc1C(c1cccc(O)c1)N1CCN(c2ccccn2)CC1` (stereo not drawn) [Compound 62, 3-((1-butyl-1H-tetrazol-5-yl)(4-(pyridin-2-yl)piperazin-1-yl)methyl)phenol]: the inhibition at 10 µM was found to be 19.9%.
For `CC(C)n1nnnc1C(c1ccnc2ccccc12)N1CCN(c2c(Cl)cncc2Cl)CC1` (stereo not drawn) [Compound 51, 4-((4-(3,5-dichloropyridin-4-yl)piperazin-1-yl)(1-isopropyl-1H-tetrazol-5-yl)methyl)quinoline], the inhibition at 10 µM came out at 101%.
Take `CCCCn1nnnc1C(c1cccc(O)c1)N1CCN(c2ccccc2OC)CC1` (stereo not drawn) [Compound 59, 3-((1-butyl-1H-tetrazol-5-yl)(4-(2-methoxyphenyl)piperazin-1-yl)methyl)phenol]: the inhibition at 10 µM was 94.5%.
Still for that read-out and setting: under `CC(C)(C)n1nnnc1C(c1ccnc2ccccc12)N1CCN(c2c(Cl)cncc2Cl)CC1` (stereo not drawn) [Compound 29, 4-((1-(tert-butyl)-1H-tetrazol-5-yl)(4-(3,5-dichloropyridin-4-yl)piperazin-1-yl)methyl)quinoline] stands 108%.
As to `CC(C)(C)n1nnnc1C(CCc1ccccc1)N1CCN(c2c(Cl)cncc2Cl)CC1` (stereo not drawn) [Compound 70, 1-(1-(1-(tert-butyl)-1H-tetrazol-5-yl)-3-phenylpropyl)-4-(3,5-dichloropyridin-4-yl)piperazine], the inhibition at 10 µM came to 109% and the midpoint of inhibition, the IC50, lay at 1280 nM.
Turning to `CC(C)(C)n1nnnc1C(c1cccs1)N1CCN(c2c(Cl)cncc2Cl)CC1` (stereo not drawn) [Compound 9], the inhibition at 10 µM was 104%.
As to `CC(C)(C)n1nnnc1C(c1ccc(F)cc1)N1CCN(c2c(Cl)cncc2Cl)CC1` (stereo not drawn) [Compound 37, 1-((1-(tert-butyl)-1H-tetrazol-5-yl)(4-fluorophenyl)methyl)-4-(3,5-dichloropyridin-4-yl)piperazine], the inhibition at 10 µM was 111%.
For the compound `CCCCn1nnnc1C(c1ccnc2ccccc12)N1CCN(c2c(Cl)cncc2Cl)CC1` (stereo not drawn) [Compound 3, 4-((1-butyl-1H-tetrazol-5-yl)(4-(3,5-dichloropyridin-4-yl)piperazin-1-yl)methyl)quinoline], the inhibition at 10 µM amounted to 110% and the IC50 amounted to 523 nM.
For the compound `CCCCn1nnnc1C(c1ccncc1)N1CCN(c2c(Cl)cncc2Cl)CC1` (stereo not drawn) [Compound 30, 1-((1-butyl-1H-tetrazol-5-yl)(pyridin-4-yl)methyl)-4-(3,5-dichloropyridin-4-yl)piperazine], the inhibition at 10 µM came out at 100%.
